According to US9023844B2, “Heterocyclylpyri (mi) dinylpyrazole as fungicidals” (Bayer Intellectual Property GmbH, priority 2011, dated 2015):

Legend:
[1] = Determination of log P values by HPLC on a reverse phase column (C18), EEC-Directive 79/831 Annex V.A8 (Methods A, B, C); assay type: physicochemical
In short: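 LogP was determined by C18 reverse-phase HPLC/UPLC with acetonitrile/water eluents containing formic acid. Method A used a 10–95% acetonitrile gradient over 4.25 min at 55 °C and 2.0 mL/min. Method B used 5–95% over 1.70 min at 55 °C and 2.0 mL/min, and Method C used 10–95% over 3.25 min at 40 °C and 0.8 mL/min, with MS detection.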

Botrytis cinerea = test: Example N: in vivo preventive test on Botrytis cinerea (grey mould); settings: dose of 500 ppm; gherkin plants; grading 4-5 days after contamination
Description: The active ingredients tested are prepared by homogenization in a mixture of acetone/tween/DMSO and then diluted with water to obtain the desired active material.
Gherkin plants (“Vert petit de Paris” variety), sown in starter cups on a 50/50 peat soil-pozzolana substrate and grown at 24° C., are treated at the Z11 cotyledon stage by spraying with the active ingredient prepared as described above. Plants, used as controls, are treated with the mixture of acetone/tween/DMSO/water not containing the active material.
After 24 hours, the plants are contaminated by spraying the cotyledons with an aqueous suspension of cryopreserved Botrytis cinerea spores (50 000 spores per ml). The spores are suspended in a nutrient solution composed of 10 g/L of PDB, 50 g/L of D-Fructose, 2 g/L of NH4NO3 and 1 g/L of KH2PO4. The contaminated gherkin plants are incubated at 17° C. and at 80% relative humidity.
Grading (% of efficacy) is carried out 4-5 days after the contamination, in comparison with the control plants.

Pyricularia oryzae = assay type: in vivo; settings: in vivo
Puccinia recondita = settings: in vivo
Septoria tritici = settings: in vivo
Sphaerotheca fuliginea = settings: in vivo
[2] = system: DON/Acetyl-DON production by Fusarium graminearum; test: microbe, parasite or virus in culture; assay type: cell-based; settings: at 50 μM
Fusarium graminearum = test: microbe, parasite or virus in culture; assay type: cell-based; settings: at 50 μM
Pyrenophora teres = settings: in vivo
Phytophthora infestans [3] = settings: in vivo
Uromyces appendiculatus = settings: in vivo
Alternaria brassicae = settings: in vivo
Phytophthora infestans [4] = assay type: in vivo; settings: in vivo
Plasmopara viticola = test: Example H: Plasmopara test (grapevines) / preventive; assay type: in vivo; settings: in vivo
Venturia inaequalis = test: Example I: Venturia test (apples) / preventive; settings: 100 ppm of active ingredient, preventive spray, evaluated 10 days after inoculation
Description: After the spray coating has dried on, the plants are inoculated with an aqueous conidia suspension of the causal agent of apple scab (Venturia inaequalis) and then remain for 1 day in an incubation cabinet at approximately 20° C. and a relative atmospheric humidity of 100%.
The plants are then placed in a greenhouse at approximately 21° C. and a relative atmospheric humidity of approximately 90%.
The test is evaluated 10 days after the inoculation.

[5] = Method B (HPLC, reverse phase C18)
[6] = Method A: HPLC, reverse phase C18, acetonitrile (0.1% formic acid)/water (0.09% formic acid) gradient

SMILES | LogP [1, 5] | protection (% of efficacy) (Botrytis cinerea) [%] | protection (% of efficacy) (Pyricularia oryzae) [%] | protection (% of efficacy) (Puccinia recondita) [%] | protection (% of efficacy) (Septoria tritici) [%] | protection (% of efficacy) (Sphaerotheca fuliginea) [%] | Inhibition of DON/AcDON in % [2] [%] | Growth inhibition of Fusarium graminearum in % (Fusarium graminearum) [%] | protection (% of efficacy) (Pyrenophora teres) [%] | LogP [1, 6] | protection (% of efficacy) (Phytophthora infestans [3]) [%] | protection (% of efficacy) (Uromyces appendiculatus) [%] | protection (% of efficacy) (Alternaria brassicae) [%] | efficacy (Phytophthora infestans [4]) [%] | efficacy (Plasmopara viticola) [%] | efficacy (Venturia inaequalis) [%]
O=C(Nc1cc(-c2c(-c3ccc(F)cc3)nn3c2OCCC3)ccn1)C1CC2CCC1C2 (stereo not drawn) [Example 64] | 3.11 | 100 | 80 | 81 | 86 | 100 | 98 | 83 |  |  |  |  |  |  |  | 
O=C(CN1CCCCC1)Nc1cc(-c2c(-c3ccc(F)cc3)nn3c2OCCC3)ccn1 [Example 66] | 1 |  | 80 | 81 | 79 | 94 |  |  |  |  |  |  |  |  |  | 
C[S+]([O-])C(C)(C)C(=O)Nc1cc(-c2c(-c3ccc(F)cc3)nn3c2OCCC3)ccn1 (stereo not drawn) [Example 68] | 1.69 | 80 | 80 | 81 | 93 | 89 |  |  |  |  |  |  |  |  |  | 
O=C(Nc1cc(-c2c(-c3ccc(F)cc3)nn3c2OCCC3)ccn1)C1SCCS1 [Example 69] | 2.1 | 100 | 100 | 81 |  | 100 | 96 | 83 | 79 |  |  |  |  |  |  | 
CCC(=O)Nc1cc(-c2c(-c3ccc(F)cc3)nn3c2O[C@H](C)C[C@H]3C)ccn1 [Example 72] |  |  | 80 | 98 | 75 | 100 | 100 | 77 | 94 | 1.84 | 75 | 96 |  |  |  | 
CCC(=O)Nc1cc(-c2c(-c3ccc(F)cc3)nn3c2O[C@H](C)C[C@@H]3C)ccn1 [Example 73] |  |  | 90 | 88 |  | 100 | 100 | 83 | 94 | 1.74 | 85 | 86 |  |  |  | 
CCC(=O)Nc1cc(-c2c(-c3ccc(F)cc3)nn3c2OCC(F)(F)C3)ccn1 [Example 74] |  |  | 80 | 88 |  | 94 |  |  | 81 | 1.9 | 79 |  |  |  |  | 
CCC(=O)Nc1cc(-c2c(-c3ccc(F)cc3)nn3c2OC(C)C3C)ccn1 (stereo not drawn) [Example 75] |  |  | 90 | 88 |  | 100 | 100 | 88 | 98 | 1.67 | 95 | 100 |  |  |  | 
CCC(=O)Nc1cc(-c2c(-c3ccc(F)cc3)nn3c(C)coc23)ccn1 [Example 103] |  | 80 |  |  |  |  |  |  |  | 1.86 |  |  | 93 |  |  | 
CCC(=O)Nc1cc(-c2c(-c3ccc(F)cc3)nn3c(CC)coc23)ccn1 [Example 104] |  | 85 | 75 |  |  |  |  |  |  | 2.23 |  | 88 | 79 | 93 | 95 | 93
CCC(=O)Nc1cc(-c2c(-c3ccc(F)cc3)nn3ccoc23)ccn1 [Example 105] |  | 100 |  | 75 |  |  | 99 | 83 | 81 | 1.61 |  | 96 | 93 | 95 | 100 | 93
CCC(=O)Nc1cc(-c2c(-c3ccccc3)nn3ccoc23)ccn1 [Example 106] |  | 100 |  |  |  | 98 | 95 | 65 |  | 1.46 |  | 81 | 79 |  |  | 
